# Laboratory results from PubChem BioAssay AID1963959 (Molecular Pharmacology Branch, DTP, NCI, 2024).
# Test system: T-47D spheroids with HUVEC/MSC, viability
# Assay: Anticancer human tumor T-47D cell line growth inhibition [PI3K];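 note: spheroids exposed to agents for seven days before reading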;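 for viability, T/C: percent of DMSO vehicle control luminescence so 100% = untreated growth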
# Details: for IC50: curve of first compound; for viability, T/C: stronger effect = lower value
# How it was run: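 Targeted small molecules plus PI3K inhibitors, half-log dose series from Cmax (default top 10 microM), were applied to heterotypic spheroids of cancer cells with HUVEC and MSCs. Viability indicated growth inhibition.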
# [1] = second compound 0.0316 µM, first compound 0.0316 µM
# [2] = second compound 0.0316 µM, first compound 0.1 µM
# [3] = second compound 0.1 µM, first compound 0.0316 µM
# [4] = second compound 0.1 µM, first compound 0.1 µM
# [5] = second compound 0.316 µM, first compound 0.0316 µM
# [6] = second compound 0.316 µM, first compound 0.1 µM
# [7] = second compound 1 µM, first compound 0.0316 µM
# [8] = second compound 1 µM, first compound 0.1 µM
# [9] = second compound 3.16 µM, first compound 0.0316 µM
# [10] = second compound 3.16 µM, first compound 0.1 µM
# [11] = second compound 10 µM, first compound 0.0316 µM
# [12] = second compound 10 µM, first compound 0.1 µM
smiles,measurement,setting,value
CC(=O)c1c(C)c2cnc(Nc3ccc(N4CCNCC4)cn3)nc2n(C2CCCC2)c1=O + Cc1nc(NC(=O)N2CCCC2C(N)=O)sc1-c1ccnc(C(C)(C)C(F)(F)F)c1,IC50,second compound 0.0316 µM,> 0.1 µM
same,IC50,second compound 0.1 µM,> 0.1 µM
same,IC50,second compound 0.316 µM,> 0.1 µM
same,IC50,second compound 1 µM,> 0.1 µM
same,IC50,second compound 3.16 µM,0.0304 µM
same,IC50,second compound 10 µM,< 0.000316 µM
same,"viability, T/C","second compound 0.0316 µM, first compound 0.000316 µM",109%
same,"viability, T/C","second compound 0.0316 µM, first compound 0.001 µM",101%
same,"viability, T/C","second compound 0.0316 µM, first compound 0.00316 µM",98.8%
same,"viability, T/C","second compound 0.0316 µM, first compound 0.01 µM",98.4%
same,"viability, T/C",[1],92.1%
same,"viability, T/C",[2],89.2%
same,"viability, T/C","second compound 0.1 µM, first compound 0.000316 µM",101%
same,"viability, T/C","second compound 0.1 µM, first compound 0.001 µM",100%
same,"viability, T/C","second compound 0.1 µM, first compound 0.00316 µM",95.8%
same,"viability, T/C","second compound 0.1 µM, first compound 0.01 µM",107%
same,"viability, T/C",[3],95.5%
same,"viability, T/C",[4],83%
same,"viability, T/C","second compound 0.316 µM, first compound 0.000316 µM",98.3%
same,"viability, T/C","second compound 0.316 µM, first compound 0.001 µM",110%
same,"viability, T/C","second compound 0.316 µM, first compound 0.00316 µM",88%
same,"viability, T/C","second compound 0.316 µM, first compound 0.01 µM",99.5%
same,"viability, T/C",[5],95.2%
same,"viability, T/C",[6],75.3%
same,"viability, T/C","second compound 1 µM, first compound 0.000316 µM",98.4%
same,"viability, T/C","second compound 1 µM, first compound 0.001 µM",90.7%
same,"viability, T/C","second compound 1 µM, first compound 0.00316 µM",85.9%
same,"viability, T/C","second compound 1 µM, first compound 0.01 µM",82.7%
same,"viability, T/C",[7],86.6%
same,"viability, T/C",[8],61.8%
same,"viability, T/C","second compound 3.16 µM, first compound 0.000316 µM",65.7%
same,"viability, T/C","second compound 3.16 µM, first compound 0.001 µM",66.8%
same,"viability, T/C","second compound 3.16 µM, first compound 0.00316 µM",69.3%
same,"viability, T/C","second compound 3.16 µM, first compound 0.01 µM",64.2%
same,"viability, T/C",[9],49.6%
same,"viability, T/C",[10],42.6%
same,"viability, T/C","second compound 10 µM, first compound 0.000316 µM",37.1%
same,"viability, T/C","second compound 10 µM, first compound 0.001 µM",39.8%
same,"viability, T/C","second compound 10 µM, first compound 0.00316 µM",35.1%
same,"viability, T/C","second compound 10 µM, first compound 0.01 µM",31.3%
same,"viability, T/C",[11],23.1%
same,"viability, T/C",[12],29.3%
CNC(=O)c1ccc(N2C(=S)N(c3ccc(C#N)c(C(F)(F)F)c3)C(=O)C2(C)C)cc1F + Cc1nc(NC(=O)N2CCCC2C(N)=O)sc1-c1ccnc(C(C)(C)C(F)(F)F)c1,IC50,second compound 0.0316 µM,> 10 µM
same,IC50,second compound 0.1 µM,> 10 µM
same,IC50,second compound 0.316 µM,> 10 µM
same,IC50,second compound 1 µM,> 10 µM
same,IC50,second compound 3.16 µM,> 10 µM
same,IC50,second compound 10 µM,< 0.0316 µM
same,"viability, T/C",[1],113%
same,"viability, T/C",[2],82%
same,"viability, T/C","second compound 0.0316 µM, first compound 0.316 µM",97%
same,"viability, T/C","second compound 0.0316 µM, first compound 1 µM",87.1%
same,"viability, T/C","second compound 0.0316 µM, first compound 3.16 µM",91.1%
same,"viability, T/C","second compound 0.0316 µM, first compound 10 µM",87.9%
same,"viability, T/C",[3],111%
same,"viability, T/C",[4],96.5%
same,"viability, T/C","second compound 0.1 µM, first compound 0.316 µM",93.2%
same,"viability, T/C","second compound 0.1 µM, first compound 1 µM",88.4%
same,"viability, T/C","second compound 0.1 µM, first compound 3.16 µM",97.7%
same,"viability, T/C","second compound 0.1 µM, first compound 10 µM",84.9%
same,"viability, T/C",[5],91.8%
same,"viability, T/C",[6],85%
same,"viability, T/C","second compound 0.316 µM, first compound 0.316 µM",94.3%
same,"viability, T/C","second compound 0.316 µM, first compound 1 µM",85.9%
same,"viability, T/C","second compound 0.316 µM, first compound 3.16 µM",101%
same,"viability, T/C","second compound 0.316 µM, first compound 10 µM",88.5%
same,"viability, T/C",[7],82.9%
same,"viability, T/C",[8],96.4%
same,"viability, T/C","second compound 1 µM, first compound 0.316 µM",85.1%
same,"viability, T/C","second compound 1 µM, first compound 1 µM",78.3%
same,"viability, T/C","second compound 1 µM, first compound 3.16 µM",91.9%
same,"viability, T/C","second compound 1 µM, first compound 10 µM",66.8%
same,"viability, T/C",[9],72%
same,"viability, T/C",[10],76%
same,"viability, T/C","second compound 3.16 µM, first compound 0.316 µM",72.2%
same,"viability, T/C","second compound 3.16 µM, first compound 1 µM",69.5%
same,"viability, T/C","second compound 3.16 µM, first compound 3.16 µM",62.3%
same,"viability, T/C","second compound 3.16 µM, first compound 10 µM",58%
same,"viability, T/C",[11],43.2%
same,"viability, T/C",[12],41.2%
same,"viability, T/C","second compound 10 µM, first compound 0.316 µM",40.5%
same,"viability, T/C","second compound 10 µM, first compound 1 µM",44.5%
same,"viability, T/C","second compound 10 µM, first compound 3.16 µM",33.7%
same,"viability, T/C","second compound 10 µM, first compound 10 µM",30.4%
Cn1cnc2c(F)c(Nc3ccc(Br)cc3Cl)c(C(=O)NOCCO)cc21 + Cc1nc(NC(=O)N2CCCC2C(N)=O)sc1-c1ccnc(C(C)(C)C(F)(F)F)c1,IC50,second compound 0.0316 µM,> 3 µM
same,IC50,second compound 0.1 µM,> 3 µM
same,IC50,second compound 0.316 µM,> 3 µM
same,IC50,second compound 1 µM,> 3 µM
same,IC50,second compound 3.16 µM,> 3 µM
same,IC50,second compound 10 µM,< 0.00949 µM
same,"viability, T/C","second compound 0.0316 µM, first compound 0.00949 µM",118%
same,"viability, T/C","second compound 0.0316 µM, first compound 0.03 µM",93.1%
same,"viability, T/C","second compound 0.0316 µM, first compound 0.0949 µM",92.6%
same,"viability, T/C","second compound 0.0316 µM, first compound 0.3 µM",85.5%
same,"viability, T/C","second compound 0.0316 µM, first compound 0.949 µM",93.1%
same,"viability, T/C","second compound 0.0316 µM, first compound 3 µM",105%
same,"viability, T/C","second compound 0.1 µM, first compound 0.00949 µM",94.9%
same,"viability, T/C","second compound 0.1 µM, first compound 0.03 µM",96.7%
same,"viability, T/C","second compound 0.1 µM, first compound 0.0949 µM",85.7%
same,"viability, T/C","second compound 0.1 µM, first compound 0.3 µM",96.1%
same,"viability, T/C","second compound 0.1 µM, first compound 0.949 µM",84.9%
same,"viability, T/C","second compound 0.1 µM, first compound 3 µM",92.3%
same,"viability, T/C","second compound 0.316 µM, first compound 0.00949 µM",97.4%
same,"viability, T/C","second compound 0.316 µM, first compound 0.03 µM",102%
same,"viability, T/C","second compound 0.316 µM, first compound 0.0949 µM",92.6%
same,"viability, T/C","second compound 0.316 µM, first compound 0.3 µM",91.2%
same,"viability, T/C","second compound 0.316 µM, first compound 0.949 µM",95.5%
same,"viability, T/C","second compound 0.316 µM, first compound 3 µM",92.3%
same,"viability, T/C","second compound 1 µM, first compound 0.00949 µM",88.2%
same,"viability, T/C","second compound 1 µM, first compound 0.03 µM",81.3%
same,"viability, T/C","second compound 1 µM, first compound 0.0949 µM",96.2%
same,"viability, T/C","second compound 1 µM, first compound 0.3 µM",93.4%
same,"viability, T/C","second compound 1 µM, first compound 0.949 µM",85.8%
same,"viability, T/C","second compound 1 µM, first compound 3 µM",96%
same,"viability, T/C","second compound 3.16 µM, first compound 0.00949 µM",77%
same,"viability, T/C","second compound 3.16 µM, first compound 0.03 µM",67.8%
same,"viability, T/C","second compound 3.16 µM, first compound 0.0949 µM",65.4%
same,"viability, T/C","second compound 3.16 µM, first compound 0.3 µM",65.5%
same,"viability, T/C","second compound 3.16 µM, first compound 0.949 µM",66.8%
same,"viability, T/C","second compound 3.16 µM, first compound 3 µM",72.2%
same,"viability, T/C","second compound 10 µM, first compound 0.00949 µM",36.7%
same,"viability, T/C","second compound 10 µM, first compound 0.03 µM",38.9%
same,"viability, T/C","second compound 10 µM, first compound 0.0949 µM",41.8%
same,"viability, T/C","second compound 10 µM, first compound 0.3 µM",37.7%
same,"viability, T/C","second compound 10 µM, first compound 0.949 µM",39.6%
same,"viability, T/C","second compound 10 µM, first compound 3 µM",36.6%
